Measured values as given in PubChem BioAssay AID1963984 (Molecular Pharmacology Branch, DTP, NCI, 2024).

Test system: 233499-124-R-J3-PDC spheroids with HUVEC/MSC, viability
Assay: Anticancer human tumor 233499-124-R-J3-PDC patient-derived colon adenocarcinoma cell line growth inhibition [PI3K]
Conditions: for IC50: curve of first compound; for viability, T/C: stronger effect = lower value; active = viability on the fitted dose curve at most 10% of control; inactive = the rest
Outline: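 High-throughput combination screen: PI3K inhibitors crossed with targeted small molecules on complex spheroids of tumor cells, HUVEC and MSCs at 37 degrees C, 5% CO2. Top concentration was at or near clinical Cmax (otherwise 10 microM), with half-log decrements.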

[1] = second compound 0.0316 µM, first compound 0.0316 µM
[2] = second compound 0.0316 µM, first compound 0.1 µM
[3] = second compound 0.0316 µM, first compound 0.316 µM
[4] = second compound 0.0316 µM, first compound 1 µM
[5] = second compound 0.0316 µM, first compound 3.16 µM
[6] = second compound 0.0316 µM, first compound 10 µM
[7] = second compound 0.1 µM, first compound 0.0316 µM
[8] = second compound 0.1 µM, first compound 0.1 µM
[9] = second compound 0.1 µM, first compound 0.316 µM
[10] = second compound 0.1 µM, first compound 1 µM
[11] = second compound 0.1 µM, first compound 3.16 µM
[12] = second compound 0.1 µM, first compound 10 µM
[13] = second compound 0.316 µM, first compound 0.0316 µM
[14] = second compound 0.316 µM, first compound 0.1 µM
[15] = second compound 0.316 µM, first compound 0.316 µM
[16] = second compound 0.316 µM, first compound 1 µM
[17] = second compound 0.316 µM, first compound 3.16 µM
[18] = second compound 0.316 µM, first compound 10 µM
[19] = second compound 1 µM, first compound 0.0316 µM
[20] = second compound 1 µM, first compound 0.1 µM
[21] = second compound 1 µM, first compound 0.316 µM
[22] = second compound 1 µM, first compound 1 µM
[23] = second compound 1 µM, first compound 3.16 µM
[24] = second compound 1 µM, first compound 10 µM
[25] = second compound 3.16 µM, first compound 0.0316 µM
[26] = second compound 3.16 µM, first compound 0.1 µM
[27] = second compound 3.16 µM, first compound 0.316 µM
[28] = second compound 3.16 µM, first compound 1 µM
[29] = second compound 3.16 µM, first compound 3.16 µM
[30] = second compound 3.16 µM, first compound 10 µM
[31] = second compound 10 µM, first compound 0.0316 µM
[32] = second compound 10 µM, first compound 0.1 µM
[33] = second compound 10 µM, first compound 0.316 µM
[34] = second compound 10 µM, first compound 1 µM
[35] = second compound 10 µM, first compound 3.16 µM
[36] = second compound 10 µM, first compound 10 µM
[37] = second compound 0.0316 µM, first compound 0.000316 µM
[38] = second compound 0.0316 µM, first compound 0.001 µM
[39] = second compound 0.0316 µM, first compound 0.00316 µM
[40] = second compound 0.0316 µM, first compound 0.01 µM
[41] = second compound 0.1 µM, first compound 0.000316 µM
[42] = second compound 0.1 µM, first compound 0.001 µM
[43] = second compound 0.1 µM, first compound 0.00316 µM
[44] = second compound 0.1 µM, first compound 0.01 µM
[45] = second compound 0.316 µM, first compound 0.000316 µM
[46] = second compound 0.316 µM, first compound 0.001 µM
[47] = second compound 0.316 µM, first compound 0.00316 µM
[48] = second compound 0.316 µM, first compound 0.01 µM
[49] = second compound 1 µM, first compound 0.000316 µM
[50] = second compound 1 µM, first compound 0.001 µM
[51] = second compound 1 µM, first compound 0.00316 µM
[52] = second compound 1 µM, first compound 0.01 µM
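Also: spheroids exposed to agents for seven days before readout.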
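For viability, T/C in this document: percent viability relative to DMSO vehicle control taken as 100%.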

CC1(C)CCC(Nc2ncc(C(F)(F)F)c(-c3c[nH]c4c(P(C)(C)=O)c(C#N)ccc34)n2)CN1 (stereo not drawn) + Cc1nc(NC(=O)N2CCCC2C(N)=O)sc1-c1ccnc(C(C)(C)C(F)(F)F)c1
66.4 nM: IC50 (second compound 0.0316 µM)
154 nM: IC50 (second compound 0.316 µM)
inactive: viability, T/C [1] 65.2% | viability, T/C [2] 32% | viability, T/C [3] 32.9% | viability, T/C [4] 34.6% | viability, T/C [5] 25.1% | viability, T/C [6] 6.03% | viability, T/C [7] 51.6% | viability, T/C [8] 41.4% | viability, T/C [9] 29.3% | viability, T/C [10] 25.1% | viability, T/C [11] 19.8% | viability, T/C [13] 54.8% | viability, T/C [14] 76.9% | viability, T/C [15] 23.8% | viability, T/C [16] 31.1% | viability, T/C [17] 16.6% | viability, T/C [18] 3.57% | viability, T/C [19] 69% | viability, T/C [20] 34.2% | viability, T/C [21] 24% | viability, T/C [22] 21.9% | viability, T/C [23] 29.1% | viability, T/C [24] 2.22% | viability, T/C [25] 52.1% | viability, T/C [26] 34.9% | viability, T/C [27] 31% | viability, T/C [28] 18.4% | viability, T/C [29] 15.9% | viability, T/C [31] 16.1% | viability, T/C [32] 16.2% | viability, T/C [33] 25.9% | viability, T/C [34] 27.1% | viability, T/C [35] 10.1%
< 31.6 nM: IC50 (second compound 3.16 µM) | IC50 (second compound 10 µM)
32.6 nM: IC50 (second compound 0.1 µM)
active: viability, T/C [12] 2.83% | viability, T/C [30] 0.85% | viability, T/C [36] 0.57%
62.3 nM: IC50 (second compound 1 µM)

C[C@@H](NC(=O)c1ncnc(N)c1Cl)c1ncc(C(=O)Nc2cc(C(F)(F)F)c(Cl)cn2)s1 + Cc1nc(NC(=O)N2CCCC2C(N)=O)sc1-c1ccnc(C(C)(C)C(F)(F)F)c1
> 10000 nM: IC50 (second compound 0.0316 µM) | IC50 (second compound 0.1 µM) | IC50 (second compound 0.316 µM)
458 nM: IC50 (second compound 3.16 µM)
9680 nM: IC50 (second compound 1 µM)
< 31.6 nM: IC50 (second compound 10 µM)
inactive: viability, T/C [1] 101% | viability, T/C [2] 75.5% | viability, T/C [3] 113% | viability, T/C [4] 136% | viability, T/C [5] 112% | viability, T/C [6] 106% | viability, T/C [7] 109% | viability, T/C [8] 90.3% | viability, T/C [9] 104% | viability, T/C [10] 110% | viability, T/C [11] 104% | viability, T/C [12] 54.8% | viability, T/C [13] 111% | viability, T/C [14] 104% | viability, T/C [15] 87.7% | viability, T/C [16] 63.9% | viability, T/C [17] 92.8% | viability, T/C [18] 79.4% | viability, T/C [19] 90.4% | viability, T/C [20] 93.3% | viability, T/C [21] 69% | viability, T/C [22] 94.4% | viability, T/C [23] 99.4% | viability, T/C [24] 48.8% | viability, T/C [25] 51.5% | viability, T/C [26] 71.5% | viability, T/C [27] 52% | viability, T/C [28] 42.5% | viability, T/C [29] 37.9% | viability, T/C [30] 35.8% | viability, T/C [31] 33.1% | viability, T/C [32] 29.2% | viability, T/C [33] 34.1% | viability, T/C [34] 38% | viability, T/C [35] 14.4% | viability, T/C [36] 14%

CC(=O)c1c(C)c2cnc(Nc3ccc(N4CCNCC4)cn3)nc2n(C2CCCC2)c1=O + CC(Nc1ccc2c(c1)OCCn1cc(N3C(=O)OCC3C(F)F)nc1-2)C(N)=O
> 100 nM: IC50 (second compound 0.00316 µM) | IC50 (second compound 0.01 µM) | IC50 (second compound 0.0316 µM) | IC50 (second compound 0.1 µM) | IC50 (second compound 0.316 µM) | IC50 (second compound 1 µM)
inactive: viability, T/C (second compound 0.00316 µM, first compound 0.000316 µM) 97.3% | viability, T/C (second compound 0.00316 µM, first compound 0.001 µM) 83.4% | viability, T/C (second compound 0.00316 µM, first compound 0.00316 µM) 95.7% | viability, T/C (second compound 0.00316 µM, first compound 0.01 µM) 73.7% | viability, T/C (second compound 0.00316 µM, first compound 0.0316 µM) 87.8% | viability, T/C (second compound 0.00316 µM, first compound 0.1 µM) 74.2% | viability, T/C (second compound 0.01 µM, first compound 0.000316 µM) 86.4% | viability, T/C (second compound 0.01 µM, first compound 0.001 µM) 87.5% | viability, T/C (second compound 0.01 µM, first compound 0.00316 µM) 80.9% | viability, T/C (second compound 0.01 µM, first compound 0.01 µM) 89.7% | viability, T/C (second compound 0.01 µM, first compound 0.0316 µM) 86% | viability, T/C (second compound 0.01 µM, first compound 0.1 µM) 70.6% | viability, T/C [37] 88.8% | viability, T/C [38] 88.4% | viability, T/C [39] 76.7% | viability, T/C [40] 89% | viability, T/C [1] 93.2% | viability, T/C [2] 71.2% | viability, T/C [41] 82.6% | viability, T/C [42] 84.4% | viability, T/C [43] 81.2% | viability, T/C [44] 101% | viability, T/C [7] 90.2% | viability, T/C [8] 65.2% | viability, T/C [45] 83% | viability, T/C [46] 79.5% | viability, T/C [47] 76.9% | viability, T/C [48] 67.2% | viability, T/C [13] 79.3% | viability, T/C [14] 59.6% | viability, T/C [49] 76.7% | viability, T/C [50] 68.7% | viability, T/C [51] 50% | viability, T/C [52] 55.3% | viability, T/C [19] 60.1% | viability, T/C [20] 48.9%

CC(C)n1nc(-c2ccc3oc(N)nc3c2)c2c(N)ncnc21 + CC(Nc1ncnc2nc[nH]c12)c1cc2cccc(Cl)c2c(=O)n1-c1ccccc1
90.9 nM: IC50 (second compound 10 µM)
> 100 nM: IC50 (second compound 0.316 µM) | IC50 (second compound 3.16 µM)
83 nM: IC50 (second compound 1 µM)
inactive: viability, T/C [37] 108% | viability, T/C [38] 90.8% | viability, T/C [39] 104% | viability, T/C [40] 79.4% | viability, T/C [1] 73.2% | viability, T/C [2] 44.5% | viability, T/C [41] 96.3% | viability, T/C [42] 85.1% | viability, T/C [43] 97.8% | viability, T/C [44] 79.3% | viability, T/C [7] 84.2% | viability, T/C [8] 45.9% | viability, T/C [45] 93.2% | viability, T/C [46] 82.6% | viability, T/C [47] 83.3% | viability, T/C [48] 95.9% | viability, T/C [13] 75.2% | viability, T/C [14] 81.7% | viability, T/C [49] 88.5% | viability, T/C [50] 82.2% | viability, T/C [51] 104% | viability, T/C [52] 93% | viability, T/C [19] 83.2% | viability, T/C [20] 43.3% | viability, T/C (second compound 3.16 µM, first compound 0.000316 µM) 83.4% | viability, T/C (second compound 3.16 µM, first compound 0.001 µM) 89.5% | viability, T/C (second compound 3.16 µM, first compound 0.00316 µM) 107% | viability, T/C (second compound 3.16 µM, first compound 0.01 µM) 67.7% | viability, T/C [25] 74.3% | viability, T/C [26] 64.8% | viability, T/C (second compound 10 µM, first compound 0.000316 µM) 82.4% | viability, T/C (second compound 10 µM, first compound 0.001 µM) 96.2% | viability, T/C (second compound 10 µM, first compound 0.00316 µM) 88.3% | viability, T/C (second compound 10 µM, first compound 0.01 µM) 79.7% | viability, T/C [31] 78.8% | viability, T/C [32] 47.2%
81.1 nM: IC50 (second compound 0.0316 µM)
89.3 nM: IC50 (second compound 0.1 µM)
